The record followed here is patent publication US8680159B2, “Bradykinin 1 receptor modulating compounds” (Gruenenthal GmbH, priority 2010, dated 2014).

Like-named read-outs stand apart in the source and are kept apart here.

The target in experiment [1] is T1, human B1R receptor (CHO K1 cells stably transfected with the human B1R gene) (Homo sapiens, UniProt P46663).
T1 construct: expressed in transfected cells; host or cells: CHO K1 cells (Chinese hamster ovary), stably transfected
T1 sequence (P46663 1-353): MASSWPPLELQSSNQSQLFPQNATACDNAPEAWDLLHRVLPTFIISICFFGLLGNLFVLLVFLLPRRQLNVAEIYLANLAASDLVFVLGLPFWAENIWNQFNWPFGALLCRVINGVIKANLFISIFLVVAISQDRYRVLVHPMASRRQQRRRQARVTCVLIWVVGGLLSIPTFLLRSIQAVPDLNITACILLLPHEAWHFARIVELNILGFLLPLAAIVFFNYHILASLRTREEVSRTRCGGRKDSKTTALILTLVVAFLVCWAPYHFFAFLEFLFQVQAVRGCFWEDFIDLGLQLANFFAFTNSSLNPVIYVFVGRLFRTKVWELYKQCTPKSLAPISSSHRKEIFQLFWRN
Briefly: Functional study on the bradykinin receptor 1 (B1R), Ca2+ fluorescence (Fluo-4) FLIPR/Novostar assay, hB1R cells. It counts as cell-based. In a few lines: (§1)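 Ca2+ influx (Fluo-4, peak fluorescence, λex 488/λem 540 nm) was measured in CHO K1 lines expressing rat or human B1R. After a 10 μM test-compound pre-addition scoring % activation, cells received EC80 agonist: Des-Arg9-bradykinin for rat, Lys-Des-Arg9-bradykinin for human. Antagonism was expressed as % of maximum inhibition, with IC50 from varied concentrations.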

Experiment [2] concerns the target T2, B1R receptor of the rat (CHO K1 cells stably transfected with the B1R gene of the rat) (Rattus norvegicus, UniProt P97583).
T2 construct: expressed in transfected cells; host or cells: CHO K1 cells (Chinese hamster ovary), stably transfected
T2 sequence (P97583 1-337): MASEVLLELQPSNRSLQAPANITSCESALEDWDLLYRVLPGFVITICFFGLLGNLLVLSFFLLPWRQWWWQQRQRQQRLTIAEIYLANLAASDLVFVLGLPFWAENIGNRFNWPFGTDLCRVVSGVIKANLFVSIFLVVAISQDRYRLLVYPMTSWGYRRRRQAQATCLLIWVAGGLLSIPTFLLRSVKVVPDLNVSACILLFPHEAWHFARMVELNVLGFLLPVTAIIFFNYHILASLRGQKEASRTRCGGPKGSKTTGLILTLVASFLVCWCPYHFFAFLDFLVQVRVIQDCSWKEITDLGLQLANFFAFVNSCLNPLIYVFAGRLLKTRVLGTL
Description: Functional study on the bradykinin receptor 1 (B1R), Ca2+ fluorescence (Fluo-4) FLIPR/Novostar assay, rB1R cells. In kind it is cell-based. The settings on record: for inhibition at 10 µM: CHO-K1, 10 μM. In a few lines: as §1

The mark [3] stands for this setting: CHO-K1, read-out: % inhibition (human B1R) at 10 μM.
Where [4] appears, read: read-out: % inhibition (rat B1R) at 10 μM.
The mark [5] stands for this setting: CHO-K1, read-out: % Inhibition (h-B1R) at 10 μM.
[6] abbreviates: read-out: % Inhibition (r-B1R) at 10 μM.

As usually defined, the inhibition is the relative decrease from the control value, in per cent. Consider `CC(C)CC(=O)N(C(C)C)[C@@H]1CCc2ccc(C(=O)N(C)C3CCN(c4ccnc(N(C)C)c4)CC3)cc21` [Example H-119, (3R)-N-[1-(2-Dimethylamino-pyridin-4-yl)-pipendin-4-yl]-3-[isopropyl-(3-methyl-butanoyl)-amino]-N-methyl-2,3-dihydro-1H-indene-5-carboxylic acid amide], for which the inhibition at 10 µM in experiment [1] (setting [3]) was 91%; in experiment [2] (setting [4]), 52%.
Turning to `O=C(NCCC1CCN(c2ccncc2)CC1)c1ccc2c(c1)C(NC(=O)c1cc(F)ccc1Cl)CC2` (stereo not drawn) [CC_H-36, 3-[(2-Chloro-5-fluoro-benzoyl)amino]-N-[2-(1-pyridin-4-yl-piperidin-4-yl)-ethyl]-2,3-dihydro-1H-indene-5-carboxylic acid amide], the inhibition at 10 µM in experiment [1] (setting [5]) was determined as 99%; in experiment [2] (setting [6]) it was 104%.
Consider `CN(C(=O)c1ccc2c(c1)C(NC(=O)c1cc(F)ccc1Cl)CC2)C1CCN(c2ccncc2)CC1` (stereo not drawn) [CC_H-26, 3-[(2-Chloro-5-fluoro-benzoyl)amino]-N-methyl-N-(1-pyridin-4-yl-piperidin-4-yl)-2,3-dihydro-1H-indene-5-carboxylic acid amide], for which the inhibition at 10 µM in experiment [1] (setting [5]) was found to be 100%. Further, the “% Inhibition (r-B1R) at 10 μM” value in experiment [2] (10 μM) was determined as 103%.
Consider `CC(C)N(C(=O)c1ccc2c(c1)[C@H](NC(=O)c1ccccc1Cl)CC2)C1CCN(c2ccncc2)CC1` [Example H-178, (3R)-3-[(2-Chloro-benzoyl)amino]-N-isopropyl-N-(1-pyridin-4-yl-piperidin-4-yl)-2,3-dihydro-1H-indene-5-carboxylic acid amide], for which the inhibition at 10 µM stood at 100% in experiment [1] (setting [3]) and 101% in experiment [2] (setting [4]).
Taken in the same sequence, the figures for `CN(C(=O)c1ccc2c(c1)OCC[C@H]2N1Cc2cccc(Cl)c2C1=O)C1CCN(c2ccncc2)CC1` [Example H-45, (4R)-4-(4-Chloro-3-oxo-1,2-dihydro-isoindol-2-yl)-N-methyl-N-(1-pyridin-4-yl-piperidin-4-yl)-3,4-dihydro-2H-chromene-7-carboxylic acid amide] were 98% and 56%.
Taken in the same sequence, the figures for `COc1cc(N2CCC(N(C)C(=O)c3ccc4c(c3)[C@H](NC(=O)c3ccccc3Cl)CC4)CC2)ccn1` [Example H-112, (3R)-3-[(2-Chloro-benzoyl)amino]-N-[1-(2-methoxy-pyridin-4-yl)-piperidin-4-yl]-N-methyl-2,3-dihydro-1H-indene-5-carboxylic acid amide] were 99% and 99%.
For `CN(C(=O)c1ccc2c(c1)C(NC(=O)c1cccc(Cl)c1Cl)CCO2)C1CCN(c2ccncc2)CC1` (stereo not drawn) [CC_H-35, 4-[(2,3-Dichloro-benzoyl)amino]-N-methyl-N-[1-pyridin-4-yl-piperidin-4-yl]-3,4-dihydro-2H-chromene-6-carboxylic acid amide], the inhibition at 10 µM in experiment [1] (setting [5]) was 97%; in experiment [2] (setting [6]), 104%.
`CN(C(=O)c1ccc2c(c1)[C@H](NC(=O)c1cnccc1C(F)(F)F)CC2)C1CCN(c2ccncc2)CC1` [Example H-36, N-[(1R)-6-[Methyl-(1-pyridin-4-yl-piperidin-4-yl)-carbamoyl]-2,3-dihydro-1H-inden-1-yl]-4-(trifluoromethyl)-pyridine-3-carboxylic acid amide]: the inhibition at 10 µM in experiment [1] (setting [3]) was determined as 100%; in experiment [2] (setting [4]), 105%.
For `Cc1cc(CN2CCC(N(C)C(=O)c3ccc4c(c3)[C@H](NC(=O)c3ccccc3Cl)CC4)CC2)on1` [Example H-134, (3R)-3-[(2-Chloro-benzoyl)amino] N-methyl-N-[1-[(3-methyl-isoxazol-5-yl)-methyl]-piperidin-4-yl]-2,3-dihydro-1H-indene-5-carboxylic acid amide] the same measures were 8% and 55%.
